How the values were obtained:
[1] = test system: 48-h-old biofilms of bacterial and fungal strains; test: MBEC assay, summary, 24 h exposure of 48-h-old biofilms; type: cell-based
Protocol: A biofilm cultivation cell composition was provided. This fifth composition was created using an MBEC Assay® biofilm inoculator, consisting of a polystyrene lid with 96 downward-protruding pegs and a corresponding base used to grow biofilms. A standardized inoculum was diluted in an appropriate biofilm growth medium to achieve a viable cell count of 1.5×10^6 CFU/mL of bacterial cells or 5×10^5 CFU/mL of fungal cells. Then, 150 μL of this inoculum was transferred into each appropriate well, and the peg lids were inserted into the microtiter plates. The plates were sealed with Parafilm and were incubated at optimum temperature for 48 h with slight rocking for bacteria and shaking at 200 rpm for fungal strains. After incubation, the peg lid was removed from the base and rinsed twice with sterile phosphate-buffered saline (PBS) for 2 min to remove loosely attached non-sessile cells. Before the antimicrobial challenge, the pegs in column 1 (n=8) were considered the biofilm growth control; these pegs were removed from the lids, placed into 200 μL of recovery medium, and analyzed for starting biofilm cell numbers as described below. […] After the antimicrobial challenge, the pegs were rinsed twice with sterile PBS for 2 min and placed into a new 96-well plate containing 200 μL of recovery medium. The recovery plates were sealed with Parafilm, and biofilm cells were dislodged from the pegs by sonication for 30 min with a Branson 3510 bath sonicator. The biofilm cells in the recovery medium were serially diluted, and a drop dilution assay was performed to enumerate the viable cells. MBEC values were determined as the minimum concentration of antimicrobials that yielded a viable cell count at or lower than the 125 CFU/mL detection limit.

E. coli SK2 = test: Checkerboard titration, FICI; type: cell-based, Escherichia coli; settings: EDTA + ethanol checkerboard
Protocol: (§1) A fourth composition and solution included tetrasodium EDTA with ethanol or chlorhexidine HCl. This fourth composition and solution were created using checkerboard titration methods using micro broth dilution in 96-well microtiter plates. The concentrations of antimicrobials used were based on previously determined MIC values. Briefly, 200 μL of two-fold dilutions of tetrasodium EDTA and ethanol or chlorhexidine HCl were prepared in MH or MH II broth with standardized cell suspension. […] Microtiter plates were incubated at 37° C. for 24 h, and the results were analyzed. Each test was performed in duplicate and included a growth control without adding any antimicrobials.

C. albicans ON47 = test: Checkerboard titration, FICI; type: cell-based, Candida albicans; settings: EDTA + ethanol checkerboard
Protocol: as §1

S. epidermidis SK9 = test: Checkerboard titration, FICI; type: cell-based, Staphylococcus epidermidis; settings: EDTA + ethanol checkerboard
Protocol: as §1

MRSA ON184 = test: Checkerboard titration, FICI; type: cell-based, Staphylococcus aureus; settings: EDTA + ethanol checkerboard
Protocol: as §1

[2] = test system: Staphylococcus aureus ON89; test: Checkerboard titration, FICI; type: cell-based; settings: S. aureus ON89; EDTA + ethanol checkerboard
Protocol: as §1

[3] = test system: Stenotrophomonas maltophilia ON17; test: Checkerboard titration, FICI; type: cell-based; settings: S. maltophilia ON17; EDTA + ethanol checkerboard
Protocol: as §1

Escherichia coli ON29 = test: Checkerboard titration, FICI; type: cell-based; settings: E. coli ON29; EDTA + ethanol checkerboard
Protocol: as §1

Candida albicans SK4b = test: Checkerboard titration, FICI; type: cell-based; settings: C. albicans SK4b; EDTA + ethanol checkerboard
Protocol: as §1

[4] = test system: Pseudomonas aeruginosa SK1; test: Checkerboard titration, FICI; type: cell-based; settings: P. aeruginosa SK1; EDTA + ethanol checkerboard
Protocol: as §1

[5] = test system: Staphylococcus epidermidis ON170; test: Checkerboard titration, FICI; type: cell-based; settings: S. epidermidis ON170; EDTA + ethanol checkerboard
Protocol: as §1

Serratia marcescens SK2 = test: Checkerboard titration, FICI; type: cell-based; settings: S. marcescens SK2; EDTA + ethanol checkerboard
Protocol: as §1

Proteus mirabilis ON153 = test: Checkerboard titration, FICI; type: cell-based; settings: P. mirabilis ON153; EDTA + ethanol checkerboard
Protocol: as §1

[6] = test system: 48-h old biofilms of bacterial and fungal test organisms; test: Rapid biofilm eradication, 2-h exposure; type: cell-based; settings: each agent alone at its MBEC
Protocol: Determining rapid biofilm eradication by tetrasodium EDTA, ethanol, and chlorhexidine HCl alone and in combination was performed. After biofilm formation, control pegs (n=6) were removed and analyzed to determine the starting biofilm cell numbers via the drop dilution method. The 48-h old biofilms on the pegs were exposed to different concentrations of test antimicrobials, dissolved in an appropriate growth medium, for two h to evaluate their efficacy alone and in combination. […] Following treatment, pegs were washed twice with sterile PBS, and the biofilm cells were dislodged into recovery medium and enumerated as described above.
The method for rapid biofilm eradication ability of test antimicrobials alone and in combination against 48-h-old biofilms within two h exposure time included (1) choosing different concentrations of test antimicrobials to assess their potency in eradicating preformed biofilms of study organisms within two h. Then (2) the quantitative recovery from biofilms following exposure to the antimicrobial solutions for bacterial strains (FIGS. 4A-4C) and fungal strains (FIG. 5) was evaluated.

With `CCO` [Ethanol, ethanol, reference compound] the “Concentration alone able to eradicate all established biofilms following 24 h of treatment” value [1] was 5%, the “Inhibitory concentration in combination” value (E. coli SK2) was 6.25 % w/v and the “Inhibitory concentration in combination” value (C. albicans ON47) was 0.4 % w/v. For the same compound, the “Inhibitory concentration in combination” value (S. epidermidis SK9) was 0.4 % w/v, the “Inhibitory concentration in combination” value (MRSA ON184) was 0.4 % w/v and the “Inhibitory concentration in combination” value [2] was 0.4 % w/v. The “Inhibitory concentration in combination” value [3] was 0.4 % w/v, the “Inhibitory concentration in combination” value (Escherichia coli ON29) was 3.125 % w/v and the “Inhibitory concentration in combination” value (Candida albicans SK4b) was 1.6 % w/v. For the same compound, the “Inhibitory concentration in combination” value [4] was 3.125 % w/v, the “Inhibitory concentration in combination” value [5] was 0.4 % w/v and the “Inhibitory concentration in combination” value (Serratia marcescens SK2) was 3.125 % w/v. The “Inhibitory concentration in combination” value (Proteus mirabilis ON153) was 1.6 % w/v and the “Eradication of preformed biofilms after 2 h of exposure” value [6] was “failed to eradicate”.

From patent publication US20230263758A1, “COMPOSITIONS OF EDTA HAVING ACTIVITY AGAINST PLANKTONIC AND BIOFILM CELLS OF CLINICALLY RELEVANT PATHOGENS” (SterileCare Inc., priority 2022, published 2023)
